Test results: patent US20250032430A1, “USES OF RHODOQUINONE FOR THE TREATMENT OF DISEASE” (Whitehead Institute for Biomedical Research, priority 2021, published 2025)
Like-named read-outs stand apart in the source and are kept apart here.

Experiments:
[1] = target: DHODH (Homo sapiens, UniProt Q02127); details: for de novo UTP biosynthesis (13C3-UTP generation, DHODH activity): wild-type 143B cells, 13C4-aspartate tracing 8 hours, 500 nM antimycin, 2 μM brequinar
Procedure: Stable isotope tracing in cells: Cells were seeded 24 hours prior to the experiment in 6-well dishes at 70% density. For stable isotope tracing of glutamine, glutamine-free DMEM (ThermoFisher) was supplemented with 2 mM ^13C5^15N2-glutamine (Sigma), 1 mM pyruvate, 5% FBS, 1% P/S, 0.1 mg/mL uridine. For stable isotope tracing of aspartate, DMEM containing 5% FBS, and 1% penicillin and streptomycin, and 0.1 mg/mL uridine (Sigma) was supplemented with the designated amount of 13C4-aspartate (Sigma) and the pH adjusted to 7.4. Uridine was left out of the media for stable isotope tracing experiments measuring nucleotide biosynthesis. Unless otherwise stated, for all experiments, cells were treated for 8 hours and metabolites were isolated as described below. Relevant compounds were added at the start of the incubation periods.
Liquid Chromatography and Mass Spectrometry (polar): A QExactive bench top orbitrap mass spectrometer equipped with an Ion Max source and a HESI II probe coupled to a Dionex UltiMate 3000 HPLC system (Thermo Fisher Scientific) was used to perform all LC-MS experiments. The instrument underwent mass calibration using the standard calibration mixture every 7 days. 2 μL of re-suspended polar metabolite samples were injected onto a SeQuant ZIC-pHILIC 5 μm 150×2.1 mm analytical column equipped with a 2.1×20 mm guard column (MilliporeSigma). The column oven was held at 25° C. and the autosampler tray was held at 4° C. Buffer A was comprised of 20 mM ammonium carbonate, 0.1% ammonium hydroxide. Buffer B was comprised of 100% acetonitrile. The chromatographic gradient was run at a flow rate of 0.150 mL/min as follows: 0-20 min: linear gradient from 80-20% B; 20-20.5 min: linear gradient from 20-80% B; 20.5-28 min: hold at 80% B. The mass spectrometer was operated in full-scan, polarity-switching mode, with the spray voltage set to 3.0 kV, the heated capillary at 275° C., and the HESI probe at 350° C. The sheath gas flow was 40 units, the auxiliary gas flow was 15 units, and the sweep gas flow was 1 unit. MS data was collected in a range of m/z=70-1000. The resolution set at 70,000, the AGC target at 1×106, and the maximum injection time at 20 msec. An additional scan (m/z=220-700) was included in negative mode only to enhance detection of nucleotides.

[2] = system: mitochondrial membrane potential; test: Mitochondrial membrane potential (TMRE dye); type: cell-based, human
Procedure: Live Cell Imaging: 143B cells were seeded at 50% density in 6-well dishes 24 hours prior to the experiment. Cells were pre-incubated with 500 nM TMRE dye for 30 minutes and then imaging on a Nikon TE2000 inverted microscope was started. Images were taken at 1 minute intervals over the course of an hour in the mCherry channel while the plate was incubated in a chamber maintaining a temperature of 37° C. and 5% CO2.
Flow Cytometry: Cells were seeded 24 hours prior to the experiment at 50% density. On the day of the experiment, the cells were treated for the designated time with inhibitors. 30 minutes prior to the end of the incubation, 500 nM TMRE dye was added to the wells. Following incubation cells were washed, trypsinized, and filtered through a cell strainer prior to sorting. Fluorescence-activated cell sorting was performed on a LSR-II sorter, in which the fluorescence intensity of individual cells was quantified in the PE channel. Data were analyzed using FlowJo software (TreeStar).

[3] = system: 143B cells; test: Cell proliferation; type: cell-based, human; details: antimycin, media containing high pyruvate and aspartate; versus wild-type cells
Procedure: Proliferation: 25,000 cells were seeded in 6-well dishes and counted on day 1 and day 5 on a Beckman Coulter Counter. Doubling times were calculated using the following equation: […]

[4] = system: 143B cells; test: Polar metabolite profiling (succinate level); type: cell-based, human; details: 500 nM antimycin 8 hours
Procedure: Isolation of metabolites from adherent cells: To isolate metabolites, media was removed, cells were washed 2 times with ice cold 1×PBS, and wells were covered in LC-MS grade 80:20 Methanol:Water (ThermoFisher). Plates were scraped on dry ice and lysates were collected into eppendorf tubes. Lysates were vortexed for 10 minutes at 4° C. and centrifuged at 16,000×g for 10 minutes at 4° C. Supernatants were immediately dried down in a Refrigerated CentriVap Benchtop Vacuum Concentrator connected to a CentriVap-105 Cold Trap (Labconco). Dried pellets were stored at −80° C. until they were run on LC-MS.
Liquid Chromatography and Mass Spectrometry (polar): A QExactive bench top orbitrap mass spectrometer equipped with an Ion Max source and a HESI II probe coupled to a Dionex UltiMate 3000 HPLC system (Thermo Fisher Scientific) was used to perform all LC-MS experiments. The instrument underwent mass calibration using the standard calibration mixture every 7 days. 2 μL of re-suspended polar metabolite samples were injected onto a SeQuant ZIC-pHILIC 5 μm 150×2.1 mm analytical column equipped with a 2.1×20 mm guard column (MilliporeSigma). The column oven was held at 25° C. and the autosampler tray was held at 4° C. Buffer A was comprised of 20 mM ammonium carbonate, 0.1% ammonium hydroxide. Buffer B was comprised of 100% acetonitrile. […]

[5] = system: SDH complex; test: Ex vivo net direction of the SDH complex in mouse tissues; details: ex vivo antimycin treatment of liver, kidney, heart, skeletal muscle
Procedure: Ex vivo stable isotope tracing on tissues: Tissues were excised from mice and washed in 1×PBS. Tissues were then cut into small pieces and placed in the appropriate stable isotope tracing media. Stable isotope tracing media contained either ^13C5^15N2-glutamine (Sigma) or 13C4-aspartate (Sigma) dissolved in DMEM, 5% FBS, 1% P/S. For ex vivo tracing experiments performed on the brain, the same media was used without FBS. Tissues were incubated for the designated time at 37° C. in a normal or hypoxia tissue culture incubator. Tissues were removed from the media, washed with PBS, and flash frozen in liquid nitrogen. Samples could be stored at −80° C. until metabolites were isolated.
Isolation of metabolites from tissues: Tissues were flash frozen and powderized with a mortar and pestle in a liquid nitrogen bath. Approximately 30 mg of tissue powder was transferred into eppendorf tubes and re-suspended in 800 uL ice-cold LC-MS grade 60:40 Methanol:Water (ThermoFisher). Samples were vortexed for 10 minutes at 4° C. […] The top layer was transferred to a new tube, dried down in a speedvac, and subsequently stored at −80° C. until they were analyzed by LC-MS. […] Protein in each sample was quantified using the Pierce BCA Protein Assay Kit (Life Technologies). […]

[6] = system: mammalian cells; test: Resistance of cells to hypoxia; type: cell-based
[7] = system: complex 1 and DHODH; test: Proliferation of WT and RquA cells in media without pyruvate or uridine; type: cell-based; details: media − pyruvate, − uridine
From the text: Proliferation of WT and RquA cells in media that forces cells to use maximal complex 1 activity (− pyruvate) and maximal DHODH activity (− uridine). Complex 1 and DHODH are enzymes in the ETC that require an electron carrier (classically UQ) to catalyze their function. […] Rotenone was used as a control and inhibits complex 1 activity. Brequinar was used as a control and inhibits DHODH activity.

Sequence of DHODH (Q02127 whole entry): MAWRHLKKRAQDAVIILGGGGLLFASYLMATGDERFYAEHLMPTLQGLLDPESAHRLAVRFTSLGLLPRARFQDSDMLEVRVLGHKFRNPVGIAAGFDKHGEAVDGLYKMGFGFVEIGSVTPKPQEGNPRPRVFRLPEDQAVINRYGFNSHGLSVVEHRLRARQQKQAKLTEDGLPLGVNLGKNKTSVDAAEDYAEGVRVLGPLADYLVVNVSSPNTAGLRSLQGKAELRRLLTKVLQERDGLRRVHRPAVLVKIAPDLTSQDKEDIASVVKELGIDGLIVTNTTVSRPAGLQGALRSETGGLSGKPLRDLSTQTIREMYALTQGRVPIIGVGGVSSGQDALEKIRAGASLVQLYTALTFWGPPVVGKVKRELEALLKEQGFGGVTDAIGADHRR

Row | Substance | DHODH activity (13C3-UTP production) [1] | DHODH activity (13C4-aspartate into 13C3-UTP) ([1]; combined inhibition of complex III with antimycin and complex I with piericidin) | de novo UTP biosynthesis (13C3-UTP generation, DHODH activity) [1] | de novo UTP biosynthesis (13C3-UTP generation, DHODH activity) ([1]; listed as Antimycin) | mitochondrial membrane potential (ΔΨMito) ([2]; SDHB-null cells versus wild-type cells, 30 minutes of antimycin treatment) | mitochondrial membrane potential (ΔΨMito) ([2]; wild-type cells, time course after antimycin) | proliferation of SDHB-null cells [3] | succinate level [4] | net-reversal of the SDH complex [5] | resistance to hypoxia [6] | support of complex 1 and DHODH activities (proliferation) [7]
1 | antimycin | ablated | no effect | did not decrease | no effect | substantially more depolarized | initial reduction in the ΔΨ^Mito, which was restored to pre-treatment levels | less than wild-type cells treated with antimycin | increase | only the liver and kidney maintained net-reversal |  | 
2 | rhodoquinone |  |  |  |  |  |  |  |  |  | renders mammalian cells resistant to hypoxia | can carry electrons in the ETC and support complex 1 and DHODH activities
